Measured values as given in paper PMC3543460, “Structure-Activity Relationships of the Antimicrobial Peptide Arasin 1 — And Mode of Action Studies of the N-Terminal, Proline-Rich Region” (PLoS ONE, 2013).
≈ marks a conversion by molar mass, not a printed value. Peptide text beside a SMILES is read from it. * marks the point of attachment. Acm = CC(=O)NC*

Key:
[1] = system: E. coli ATCC 25922; format: cell-based, Escherichia coli; conditions: ATCC 25922, 24 h
Protocol: (§1) Escherichia coli (ATCC 25922), E. coli HB101, Pseudomonas aeruginosa (ATCC 27853), Staphylococcus aureus (ATCC 9144) and Corynebacterium glutamicum (ATCC 13032) were grown at 37°C in Mueller Hinton agar (MH; Difco Laboratories, Detroit, USA). The yeasts Candida albicans (ATCC 10231) and Saccharomyces cerevisiae spp and the mold Botrytis cinerea 101 [33] were cultivated on potato dextrose agar supplemented with 2% glucose at room temperature (RT).
(§2) Determination of the MIC against bacteria was performed by continuous monitoring of bacterial growth using a Bioscreen C microbiology reader (Labsystems Oy, Helsinki, Finland). The synthetic peptides were tested for antibacterial and antifungal activity at final concentrations (prepared from serial two-fold dilutions) ranging from 0.2 µM to 100 µM. The test was performed in 100-well flat-bottomed honeycomb plates, in which 50 µl peptide solution was incubated with 50 µl of a suspension of an actively growing culture of bacteria diluted to a starting concentration of 2.5×10^5 CFU/ml in Mueller Hinton Broth (MHB). The growth chamber was maintained at 37°C during the incubation period. The absorbance was measured by a turbidometric method with vertical light photometry and a wide band filter (420–580 nm). MIC was defined as the lowest concentration resulting in no visible bacterial growth after 24 h.

[2] = system: P. aeruginosa ATCC 27853; format: cell-based, Pseudomonas aeruginosa; conditions: ATCC 27853, 24 h
Protocol: as §1, §2

[3] = system: S. aureus ATCC 9144; format: cell-based, Staphylococcus aureus; conditions: ATCC 9144, 24 h
Protocol: as §1, §2

[4] = system: B. cinerea 101; format: cell-based, Botrytis cinerea; conditions: for IC50: 101, 48 h; for IC50 B. cinerea 101: lowest concentration tested giving less than 50% visible growth vs growth control, potato dextrose medium, 20°C, 48 h, three individual experiments
Protocol: as §1
(§3) Fungal spores were dissolved in potato dextrose broth (Difco, Lawrence, KS, USA) and the cell concentration was determined and adjusted after counting in a Bürker chamber. Botrytis cinerea was filtered through a piece of cotton before counting. An aliquot of 50 µl of fungal spores (final concentration 2×10^5 spores/ml) were inoculated in 96-well Nunclon™ microtitre plates (Nagle Nunc Int. Roskilde, Denmark) along with 50 µl of synthetic peptide dissolved in Milli-Q water. Cultures were grown in a dark moist chamber without shaking at 20°C for S. cerevisiae and B. cinerea, and at 37°C for C. albicans. Growth inhibition was determined microscopically after 48 h of incubation. Inhibitory concentrations (IC50) was defined as the lowest concentration tested which yielded less than 50% visible growth compared to the growth control (fungi). Each peptide was tested in parallels in three individual runs for the antimicrobial assays.

[5] = system: C. glutamicum ATCC 13032; format: cell-based, Corynebacterium glutamicum; conditions: ATCC 13032, 24 h
Protocol: as §1, §2

[6] = system: C. albicans ATCC 10231; format: cell-based, Candida albicans; conditions: for IC50: ATCC 10231, 48 h; for IC50 C. albicans ATCC 10231: lowest concentration tested giving less than 50% visible growth vs growth control, potato dextrose medium, 37°C, 48 h, three individual experiments
Protocol: as §1, §3

[7] = system: S. cerevisiae spp.; format: cell-based, Saccharomyces cerevisiae; conditions: 48 h
Protocol: as §1, §3

[8] = system: E. coli HB101; test: Antibacterial MIC assay (Bioscreen C growth monitoring); format: cell-based, Escherichia coli; conditions: lowest concentration with no visible bacterial growth after 24 h; 37°C, 50% MH, 2.5×10^5 cells/mL; representative of three individual experiments
Protocol: as §1, §2

Structure (SMILES)	MIC E. coli ATCC 25922 [1] [µM]	MIC P. aeruginosa ATCC 27853 [2] [µM]	MIC S. aureus ATCC 9144 [3] [µM]	IC50 [4] [µM]	MIC C. glutamicum ATCC 13032 [5] [µM]	IC50 [6] [µM]	IC50 [7] [µM]	IC50 C. albicans ATCC 10231 [6] [µM]	MIC E. coli HB101 [8] [µM]	IC50 B. cinerea 101 [4] [µM]
N=C(N)NCCC[C@H](NC(=O)[C@@H](N)CO)C(=O)N[C@@H](Cc1c[nH]c2ccccc12)C(=O)N1CCC[C@H]1C(=O)N[C@@H](CO)C(=O)N1CCC[C@H]1C(=O)NCC(=O)N[C@@H](CCCNC(=N)N)C(=O)N1CCC[C@H]1C(=O)N[C@@H](CCCNC(=N)N)C(=O)N1CCC[C@H]1C(=O)N[C@@H](Cc1ccccc1)C(=O)N1CCC[C@H]1C(=O)NCC(=O)O [Arasin 1(1–14)] (H-SRWPSPGRPRPFPG-OH; N-terminus and C-terminus assumed)	>100	>100	>100	> 100	>100	> 100	> 100			
CC[C@H](C)[C@H](NC(=O)[C@@H]1CCCN1C(=O)[C@H](CCCCN)NC(=O)[C@@H]1CCCN1C(=O)[C@H](CCCNC(=N)N)NC(=O)CNC(=O)[C@@H]1CCCN1C(=O)[C@H](Cc1ccccc1)NC(=O)[C@@H]1CCCN1C(=O)[C@H](CCCNC(=N)N)NC(=O)[C@@H]1CCCN1C(=O)[C@H](CCCNC(=N)N)NC(=O)CNC(=O)[C@@H]1CCCN1C(=O)[C@H](CO)NC(=O)[C@@H]1CCCN1C(=O)[C@H](Cc1c[nH]c2ccccc12)NC(=O)[C@H](CCCNC(=N)N)NC(=O)[C@@H](N)CO)C(=O)N[C@@H](Cc1ccccc1)C(=O)O [Arasin 1(1–20)] (H-SRWPSPGRPRPFPGRPKPIF-OH; N-terminus and C-terminus assumed)	>100	>100	>100	25 to 50	12.5 to 25		25	50		
CC[C@H](C)[C@H](NC(=O)[C@@H]1CCCN1C(=O)[C@H](CCCCN)NC(=O)[C@@H]1CCCN1C(=O)[C@H](CCCNC(=N)N)NC(=O)CNC(=O)[C@@H]1CCCN1C(=O)[C@H](Cc1ccccc1)NC(=O)[C@@H]1CCCN1C(=O)[C@H](CCCNC(=N)N)NC(=O)[C@@H]1CCCN1C(=O)[C@H](CCCNC(=N)N)NC(=O)CNC(=O)[C@@H]1CCCN1C(=O)[C@H](CO)NC(=O)[C@@H]1CCCN1C(=O)[C@@H](N)Cc1c[nH]c2ccccc12)C(=O)N[C@@H](Cc1ccccc1)C(=O)N[C@@H](CCCNC(=N)N)C(=O)N1CCC[C@H]1C(=O)N[C@@H](CCCNC(=N)N)C(N)=O [Arasin 1(3–23)] (H-WPSPGRPRPFPGRPKPIFRPR-NH2; N-terminus assumed)	25 to 50	100 (≈ 250 µg/mL)	>100	25	3.1 (≈ 7.74 µg/mL)	25	12.5		12.5 (≈ 31.2 µg/mL)	
CC[C@H](C)[C@H](NC(=O)[C@@H]1CCCN1C(=O)[C@H](CCCCN)NC(=O)[C@@H]1CCCN1C(=O)[C@H](CCCNC(=N)N)NC(=O)CNC(=O)[C@@H]1CCCN1C(=O)[C@H](Cc1ccccc1)NC(=O)[C@@H]1CCCN1C(=O)[C@H](CCCNC(=N)N)NC(=O)[C@@H]1CCCN1C(=O)[C@H](CCCNC(=N)N)NC(=O)CNC(=O)[C@@H]1CCCN1C(=O)[C@@H](N)CO)C(=O)N[C@@H](Cc1ccccc1)C(=O)N[C@@H](CCCNC(=N)N)C(=O)N1CCC[C@H]1C(=O)N[C@@H](CCCNC(=N)N)C(N)=O [Arasin 1(5–23)] (H-SPGRPRPFPGRPKPIFRPR-NH2; N-terminus assumed)	>100	>100	>100	25	6.3 (≈ 14 µg/mL)	25	12.5		100 (≈ 221 µg/mL)	
CC[C@H](C)[C@H](NC(=O)[C@@H]1CCCN1C(=O)[C@H](CCCCN)NC(=O)[C@@H]1CCCN1C(=O)[C@H](CCCNC(=N)N)NC(=O)CNC(=O)[C@@H]1CCCN1C(=O)[C@H](Cc1ccccc1)NC(=O)[C@@H]1CCCN1C(=O)[C@H](CCCNC(=N)N)NC(=O)[C@@H]1CCCN1C(=O)[C@H](CCCNC(=N)N)NC(=O)CN)C(=O)N[C@@H](Cc1ccccc1)C(=O)N[C@@H](CCCNC(=N)N)C(=O)N1CCC[C@H]1C(=O)N[C@@H](CCCNC(=N)N)C(N)=O [Arasin 1(7–23)] (H-GRPRPFPGRPKPIFRPR-NH2; N-terminus assumed)	50 to 100	50 to 100	>100		3.1 (≈ 6.29 µg/mL)	25	12.5		25 (≈ 50.8 µg/mL)	50
CC[C@H](C)[C@H](NC(=O)[C@@H]1CCCN1C(=O)[C@H](CCCCN)NC(=O)[C@@H]1CCCN1C(=O)[C@H](CCCNC(=N)N)NC(=O)CNC(=O)[C@@H]1CCCN1C(=O)[C@H](Cc1ccccc1)NC(=O)[C@@H]1CCCN1C(=O)[C@H](CCCNC(=N)N)NC(=O)[C@@H]1CCCN1)C(=O)N[C@@H](Cc1ccccc1)C(=O)N[C@@H](CCCNC(=N)N)C(=O)N1CCC[C@H]1C(=O)N[C@@H](CCCNC(=N)N)C(N)=O [Arasin 1(9–23)] (H-PRPFPGRPKPIFRPR-NH2; N-terminus assumed)	>100	>100	>100		12.5 (≈ 22.7 µg/mL)		25	50	100 (≈ 182 µg/mL)	50
CC[C@H](C)[C@H](NC(=O)[C@@H]1CCCN1C(=O)[C@H](CCCCN)NC(=O)[C@@H]1CCCN1C(=O)[C@H](CCCNC(=N)N)NC(=O)CNC(=O)[C@@H]1CCCN1C(=O)[C@H](Cc1ccccc1)NC(=O)[C@@H]1CCCN1C(=O)[C@H](CCCNC(=N)N)NC(=O)[C@@H]1CCCN1C(=O)[C@H](CCCNC(=N)N)NC(=O)CNC(=O)[C@@H]1CCCN1C(=O)[C@H](CO)NC(=O)[C@@H]1CCCN1C(=O)[C@H](Cc1c[nH]c2ccccc12)NC(=O)[C@H](CCCNC(=N)N)NC(=O)[C@@H](N)CO)C(=O)N[C@@H](Cc1ccccc1)C(=O)N[C@@H](CCCNC(=N)N)C(=O)N1CCC[C@H]1C(=O)N[C@@H](CCCNC(=N)N)C(=O)N1CCC[C@H]1C(=O)N[C@@H](CSCNC(C)=O)C(=O)N[C@@H](CC(N)=O)C(=O)N[C@@H](CSCNC(C)=O)C(=O)N[C@@H](Cc1ccc(O)cc1)C(=O)N[C@@H](C)C(=O)N1CCC[C@H]1C(=O)N1CCC[C@H]1C(=O)N[C@@H](CSCNC(C)=O)C(=O)N1CCC[C@H]1C(=O)N[C@@H](CSCNC(C)=O)C(=O)N[C@@H](CC(=O)O)C(=O)N[C@@H](CCCNC(=N)N)C(=O)N[C@@H](Cc1c[nH]c2ccccc12)C(=O)O [Arasin 1-Acm] (H-SRWPSPGRPRPFPGRPKPIFRPRPC(Acm)NC(Acm)YAPPC(Acm)PC(Acm)DRW-OH; N-terminus and C-terminus assumed)	25 to 50	100 (≈ 463 µg/mL)	>100	12.5 to 50	0.8 (≈ 3.71 µg/mL)	25	12.5			
